In one assay the target is T1, human Fatty Acid Synthase (Homo sapiens, UniProt P49327).
T1 construct: made in house
T1 sequence (P49327 whole entry): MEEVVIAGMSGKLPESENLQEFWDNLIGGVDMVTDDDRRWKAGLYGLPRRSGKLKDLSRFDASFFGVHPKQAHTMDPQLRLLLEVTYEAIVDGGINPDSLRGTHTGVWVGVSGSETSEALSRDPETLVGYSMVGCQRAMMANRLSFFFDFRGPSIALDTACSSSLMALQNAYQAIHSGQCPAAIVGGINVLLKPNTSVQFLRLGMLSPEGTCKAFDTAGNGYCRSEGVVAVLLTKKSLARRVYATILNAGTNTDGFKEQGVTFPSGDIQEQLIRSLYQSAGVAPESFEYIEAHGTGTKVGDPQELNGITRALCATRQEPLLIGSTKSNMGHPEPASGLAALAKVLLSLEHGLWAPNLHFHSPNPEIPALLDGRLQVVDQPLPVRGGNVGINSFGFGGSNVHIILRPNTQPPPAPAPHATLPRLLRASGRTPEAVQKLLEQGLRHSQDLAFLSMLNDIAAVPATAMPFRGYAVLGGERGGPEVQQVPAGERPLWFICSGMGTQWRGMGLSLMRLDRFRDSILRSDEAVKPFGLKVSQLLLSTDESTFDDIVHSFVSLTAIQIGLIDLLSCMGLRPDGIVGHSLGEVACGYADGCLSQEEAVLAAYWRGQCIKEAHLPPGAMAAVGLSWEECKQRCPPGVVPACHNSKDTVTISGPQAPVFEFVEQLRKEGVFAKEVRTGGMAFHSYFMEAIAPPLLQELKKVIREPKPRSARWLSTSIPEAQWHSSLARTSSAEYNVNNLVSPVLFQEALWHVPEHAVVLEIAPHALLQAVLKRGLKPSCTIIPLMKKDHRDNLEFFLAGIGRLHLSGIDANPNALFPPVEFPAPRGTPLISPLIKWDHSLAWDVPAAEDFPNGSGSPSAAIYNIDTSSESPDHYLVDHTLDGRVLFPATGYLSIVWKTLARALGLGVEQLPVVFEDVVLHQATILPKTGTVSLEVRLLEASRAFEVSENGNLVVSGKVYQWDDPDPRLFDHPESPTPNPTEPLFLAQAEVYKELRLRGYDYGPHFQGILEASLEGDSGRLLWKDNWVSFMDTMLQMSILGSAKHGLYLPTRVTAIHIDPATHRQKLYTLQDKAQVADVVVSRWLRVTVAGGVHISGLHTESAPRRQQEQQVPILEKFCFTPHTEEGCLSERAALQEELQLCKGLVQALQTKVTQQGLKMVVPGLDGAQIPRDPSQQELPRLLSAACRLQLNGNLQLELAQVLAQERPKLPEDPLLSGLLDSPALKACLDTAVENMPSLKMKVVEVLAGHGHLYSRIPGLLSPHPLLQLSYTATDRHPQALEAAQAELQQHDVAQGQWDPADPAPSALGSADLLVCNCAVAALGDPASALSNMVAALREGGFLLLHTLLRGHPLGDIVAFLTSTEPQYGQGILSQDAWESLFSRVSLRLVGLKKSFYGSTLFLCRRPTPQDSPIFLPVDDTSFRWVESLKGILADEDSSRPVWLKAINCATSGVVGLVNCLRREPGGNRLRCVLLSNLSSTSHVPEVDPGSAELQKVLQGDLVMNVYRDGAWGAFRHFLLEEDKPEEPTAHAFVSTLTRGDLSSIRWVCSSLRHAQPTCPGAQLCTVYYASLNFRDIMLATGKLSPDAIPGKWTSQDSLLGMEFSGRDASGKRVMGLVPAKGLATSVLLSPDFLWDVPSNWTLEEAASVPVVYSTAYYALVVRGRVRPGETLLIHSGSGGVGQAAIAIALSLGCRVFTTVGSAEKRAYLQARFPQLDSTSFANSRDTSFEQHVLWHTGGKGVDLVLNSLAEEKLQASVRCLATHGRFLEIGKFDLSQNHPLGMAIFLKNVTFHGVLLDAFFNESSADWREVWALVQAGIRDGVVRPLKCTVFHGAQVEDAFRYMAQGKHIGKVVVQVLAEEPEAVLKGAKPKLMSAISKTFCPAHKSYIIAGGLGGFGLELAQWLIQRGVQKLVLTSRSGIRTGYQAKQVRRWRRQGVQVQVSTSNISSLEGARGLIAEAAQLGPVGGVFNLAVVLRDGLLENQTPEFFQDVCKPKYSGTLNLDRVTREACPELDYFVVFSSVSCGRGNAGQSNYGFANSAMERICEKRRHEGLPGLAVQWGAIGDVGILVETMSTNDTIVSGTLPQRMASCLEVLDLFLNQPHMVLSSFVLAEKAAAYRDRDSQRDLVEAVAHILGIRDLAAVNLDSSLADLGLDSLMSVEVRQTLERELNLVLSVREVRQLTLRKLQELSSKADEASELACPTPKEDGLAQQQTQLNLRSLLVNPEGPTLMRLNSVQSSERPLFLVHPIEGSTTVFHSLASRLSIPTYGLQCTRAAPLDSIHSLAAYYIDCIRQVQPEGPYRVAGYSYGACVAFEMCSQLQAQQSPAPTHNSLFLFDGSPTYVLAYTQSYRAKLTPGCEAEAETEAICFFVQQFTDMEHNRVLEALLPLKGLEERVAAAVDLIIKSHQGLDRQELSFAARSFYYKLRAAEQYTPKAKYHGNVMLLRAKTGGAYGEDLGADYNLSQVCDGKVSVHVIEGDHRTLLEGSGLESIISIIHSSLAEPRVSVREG
Description: Human FAS enzyme assay (decrease in NADPH fluorescence). The assay is classed as biochemical. Conditions: % inhibition at a concentration of 100 micromolar. The text has this: The compounds of the present invention are Fatty Acid Synthase inhibitors. […] Human and Rat FAS Enzyme Assay.
Fatty acid synthase is an enzyme complex that harbours seven enzymatic activities catalysing the reductive synthesis of long chain fatty acids from acetyl CoA and malonyl CoA to palmitate. When acetyl CoA and malonyl CoA are forming palmitate NADPH is consumed forming NADP. Since NADPH is fluorescent but not NADP the reaction can be measured by analysing the decrease in fluorescence.
Compounds were added to a black 384 well plate (Matrix) in a volume of 5 μl consisting of 20% DMSO and 80% Tris buffer pH 7.5, at a top concentration of 1 mM. NADPH, 30 μl of 166.6 μM, formulated in assay buffer (0.1M Tris ph7.5, 0.1 mM EDTA, 1 mM glutathione, 0.05% BSA), was then added to all of the wells of the plate. Fatty acid synthase Human or rat enzyme (0.4 μg, produced in house), dissolved in 20 mM Tris/HCl pH 7.5, 5 mM BOG, 1 mM TCEP, 10% glycerol, 1 mM EDTA, 150 mM NaCl, was then added to the plate in a volume of […]. Enzyme was added to all but the last two columns of the plate, to which, 10 μl of assay buffer was added (0.1M Tris ph7.5, 0.1 mM EDTA, 1 mM glutathione, 0.05% BSA) to provide a no enzyme assay control. Following a 15-minute incubation period, at room temperature, the plates were read on an Envision plate reader using 340 nm excitation and 460 nm emission filters. This served as a time zero background read. Substrates (an equal mix of both malonyl and acetyl CoA) were then added to the plates in a total volume of 5 μl. The concentrations of malonyl and acetyl CoA in the mixture were 500 μM and 150 μM respectively. Both were prepared as 10 mM stock solutions in distilled water and were subsequently diluted to working concentrations in assay buffer. Plates were then incubated for a further 60 minutes, at room temperature, before being read again on the Envision reader using the same parameters as previously used. The data was analysed by subtracting the background time zero data from that generated following the final 60 minute incubate and the percent inhibition compared to the maximum and minimum assay controls was determined. Sigmoid curves were fitted using Origin 7.5 Client software and IC50 values were determined.
As a reminder, the inhibition is the drop in the measured response relative to a control, in per cent. On to `Cc1ccc(NS(=O)(=O)C2CC2)cc1C(=O)N1CCC(c2ccc(C#N)cc2)CC1` [Example 40, N-[3-[4-(4-cyanophenyl)piperidine-1-carbonyl]-4-methyl-phenyl]cyclopropanesulfonamide], for which the inhibition at 100 µM stood at 89%.

Consider `Cc1ccc(C(=O)N2CCC(c3ccc(S(N)(=O)=O)cc3)CC2)cc1NS(C)(=O)=O` [Example 186, 4-[1-(3-methanesulfonamido-4-methylbenzoyl)piperidin-4-yl]benzenesulfonamide], for which the inhibition at 100 µM stood at 99%.

For the compound `COC(=O)CS(=O)(=O)Nc1cc(C(=O)N2CCC(c3ccc(C#N)cc3)CC2)ccc1C` [Example 13, methyl 2-[[5-[4-(4-cyanophenyl)piperidine-1-carbonyl]-2-methyl-phenyl]sulfamoyl]acetate], the inhibition at 100 µM came out at 76%.

With `CNC(=O)NCc1ccc(C2CCN(C(=O)c3ccc(C)c(NS(C)(=O)=O)c3)CC2)cc1` [Example 233, 1-[[4-[1-(3-methanesulfonamido-4-methylbenzoyl)piperidin-4-yl]phenyl]methyl]-3-methylurea], the inhibition at 100 µM came to 81.8%.

As to `COc1ccc(C(=O)N2CCC(c3ccc(C#N)cc3)CC2)cc1NS(C)(=O)=O` [Example 6, N-[5-[4-(4-cyanophenyl)piperidine-1-carbonyl]-2-methoxy-phenyl]methanesulfonamide], the inhibition at 100 µM is 75%.

In the case of `Cc1cc(C2CCN(C(=O)c3ccc(C)c(NS(C)(=O)=O)c3)CC2)ccc1C#N` [Example 217, N-[5-[4-(4-cyano-3-methylphenyl)piperidine-1-carbonyl]-2-methylphenyl]methane-sulfonamide], the inhibition at 100 µM was found to be 60%.

Regarding `Cc1ccc(C(=O)N2CCC(c3ccc(C#N)c(Cl)c3)CC2)cc1NS(C)(=O)=O` [Example 218, N-[5-[4-(3-chloro-4-cyanophenyl)piperidine-1-carbonyl]-2-methylphenyl]methane-sulfonamide], the inhibition at 100 µM came to 67%.

On to `Cc1ccc(NS(=O)(=O)Cc2ccccc2F)cc1C(=O)N1CCC(c2ccc(C#N)cc2)CC1` [Example 51, N-[3-[4-(4-cyanophenyl)piperidine-1-carbonyl]-4-methyl-phenyl]-1-(2-fluorophenyl)methanesulfonamide], for which the inhibition at 100 µM turned out to be 94%.

With `COc1ccccc1S(=O)(=O)Nc1ccc(C)c(C(=O)N2CCC(c3ccc(C#N)cc3)CC2)c1` [Example 50, N-[3-[4-(4-cyanophenyl)piperidine-1-carbonyl]-4-methyl-phenyl]-2-methoxy-benzenesulfonamide], the inhibition at 100 µM turned out to be 87%.

For the compound `Cc1ccc(NS(=O)(=O)CC(F)(F)F)cc1C(=O)N1CCC(c2ccc(C#N)cc2)CC1` [Example 55, N-[3-[4-(4-cyanophenyl)piperidine-1-carbonyl]-4-methyl-phenyl]-2,2,2-trifluoro-ethanesulfonamide], the inhibition at 100 µM was found to be 79%.

As for `Cc1ccc(C(=O)N2CCC(O)(c3ccc(Br)cc3)CC2)cc1NS(=O)(=O)Cc1ccccc1` [Example 201, N-[5-[4-(4-bromophenyl)-4-hydroxypiperidine-1-carbonyl]-2-methylphenyl]-1-phenylmethanesulfonamide], the inhibition at 100 µM was determined as 68%.

As for `C=CS(=O)(=O)Nc1cc(C(=O)N2CCC(c3ccc(C#N)cc3)CC2)ccc1C` [Example 98, N-[5-[4-(4-cyanophenyl)piperidine-1-carbonyl]-2-methyl-phenyl]ethenesulfonamide], the inhibition at 100 µM turned out to be 110%.

In the case of `CS(=O)(=O)c1ccc(C(=O)N2CCC(c3ccc(C#N)cc3)CC2)cc1NS(=O)(=O)Cc1ccccc1` [Example 135, N-[5-[4-(4-cyanophenyl)piperidine-1-carbonyl]-2-methylsulfonyl-phenyl]-1-phenyl-methanesulfonamide], the inhibition at 100 µM was 100%.

As for `COC(=O)c1cccc(S(=O)(=O)Nc2cc(C(=O)N3CCC(c4ccc(C#N)cc4)CC3)ccc2C)c1` [Example 76, Methyl 3-[[5-[4-(4-cyanophenyl)piperidine-1-carbonyl]-2-methyl-phenyl]sulfamoyl]benzoate], the inhibition at 100 µM is 97%.

With `Cc1ccc(NS(=O)(=O)Cc2ccccc2)cc1C(=O)N1CCC(c2ccc(C#N)cc2)CC1` [Example 8, N-[3-[4-(4-cyanophenyl)piperidine-1-carbonyl]-4-methyl-phenyl]-1-phenyl-methanesulfonamide], the inhibition at 100 µM worked out at 82%.

In the case of `Cc1ccc(C(=O)N2CCC(c3ccc(C(F)(F)F)cc3)CC2)cc1NS(C)(=O)=O` [Example 157, N-[2-methyl-5-[4-[4-(trifluoromethyl)phenyl]piperidine-1-carbonyl]phenyl]methanesulfonamide], the inhibition at 100 µM came to 78%.

With `Cc1ccc(C2CCN(C(=O)c3ccc(C)c(NS(C)(=O)=O)c3)CC2)cc1` [Example 158, N-[2-methyl-5-[4-(4-methylphenyl)piperidine-1-carbonyl]phenyl]methanesulfonamide], the inhibition at 100 µM amounted to 81%.

As to `Cc1ccc(C(=O)N2CCC(c3ccc(C#N)cc3)CC2)cc1NS(=O)(=O)c1ccc(N(C)C)nc1` [Example 96, N-[5-[4-(4-cyanophenyl)piperidine-1-carbonyl]-2-methyl-phenyl]-6-dimethylamino-pyridine-3-sulfonamide], the inhibition at 100 µM is 98%.

Take `Cc1ccc(C(=O)N2CCC(c3ccc(S(=O)(=O)NCCO)cc3)CC2)cc1NS(C)(=O)=O` [Example 220, N-(2-hydroxyethyl)-4-[1-(3-methanesulfonamido-4-methylbenzoyl)piperidin-4-yl]benzenesulfonamide]: the inhibition at 100 µM is 85%.

For the compound `Cc1ccc(C(=O)N2CCC(c3ccc(CNC(=O)CC(C)C)cc3)CC2)cc1NS(C)(=O)=O` [Example 236, N-[[4-[1-(3-methanesulfonamido-4-methylbenzoyl)piperidin-4-yl]phenyl]methyl]-3-methylbutanamide], the inhibition at 100 µM is 59.8%.

Consider `Cc1ccc(C(=O)N2CCC(c3ccc(C#N)cc3)CC2)cc1NS(=O)(=O)CC1CCCCC1` [Example 15, N-[5-[4-(4-cyanophenyl)piperidine-1-carbonyl]-2-methyl-phenyl]-1-cyclohexyl-methanesulfonamide], for which the inhibition at 100 µM was found to be 93%.

Still in this assay, the particulars now being: compounds excluded from the claims by proviso.
Take `Cc1ccc(C(=O)N2CCC(c3ccc(S(=O)(=O)N4CCN(C)CC4)cc3)CC2)cc1NS(C)(=O)=O` [N-[2-methyl-5-[4-[4-(4-methylpiperazin-1-yl)sulfonylphenyl]piperidine-1-carbonyl]phenyl]methanesulfonamide]: the “IC50s in the range of about 0.001 μM to about 30 μM” value (shortened to “IC50s in the range”) was “do not have IC50s in the range of about 0.001 μM to about 30 μM”.

Turning to `Cc1ccc(C(=O)N2CCC(c3ccc(-c4ncccn4)cc3)CC2)cc1NS(C)(=O)=O` [N-[2-methyl-5-[4-(4-pyrimidin-2-ylphenyl)piperidine-1-carbonyl]phenyl]methanesulfonamide], the “IC50s in the range” value is on record as “do not have IC50s in the range of about 0.001 μM to about 30 μM”.

For `C[S+]([O-])c1ccc(C(=O)N2CCC(c3ccc(C#N)cc3)CC2)cc1NS(C)(=O)=O` (stereo not shown) [N-[5-[4-(4-cyanophenyl)piperidine-1-carbonyl]-2-methylsulfinylphenyl]methanesulfonamide], the “IC50s in the range” value is recorded as “do not have IC50s in the range of about 0.001 μM to about 30 μM”.

`Cc1ccc(C(=O)N2CCC(c3ccc(S(=O)(=O)N4CCCC4)cc3)CC2)cc1NS(C)(=O)=O` [N-[2-methyl-5-[4-(4-pyrrolidin-1-ylsulfonylphenyl)piperidine-1-carbonyl]phenyl]methanesulfonamide]: the “IC50s in the range” value is on record as “do not have IC50s in the range of about 0.001 μM to about 30 μM”.

In the case of `Cc1ccc(C(=O)N2CCC(c3ccc(CN)cc3)CC2)cc1NS(C)(=O)=O` [N-[5-[4-[4-(aminomethyl)phenyl]piperidine-1-carbonyl]-2-methylphenyl]methanesulfonamide], the “IC50s in the range” value is listed as “do not have IC50s in the range of about 0.001 μM to about 30 μM”.

`CS(=O)(=O)Nc1ccc(F)c(C(=O)N2CCC(c3ccc(C#N)cc3)CC2)c1` [N-[3-[4-(4-cyanophenyl)piperidine-1-carbonyl]-4-fluorophenyl]methanesulfonamide]: the “IC50s in the range” value was “do not have IC50s in the range of about 0.001 μM to about 30 μM”.

Consider `COc1ccc(CNC(=O)c2ccccc2S(=O)(=O)Nc2cc(C(=O)N3CCC(c4ccc(C#N)cc4)CC3)ccc2C)c(OC)c1` [2-[[5-[4-(4-cyanophenyl)piperidine-1-carbonyl]-2-methylphenyl]sulfamoyl]-N-[(2,4-dimethoxyphenyl)methyl]benzamide], for which the “IC50s in the range” value was “do not have IC50s in the range of about 0.001 μM to about 30 μM”.

The values above are taken from patent US20090105305A1, “Therapeutic Agents - 550” (AstraZeneca AB, priority 2006, published 2009).
